Results from patent US7705013B2, “Use of canthin-6-one, plant extracts containing same and derivatives thereof in the treatment of trypanosomiases” (Institut de Recherche pour le Developpement, priority 2002, dated 2010).

Tests used:
[1] = test system: Trypanosoma cruzi; experiment: In vivo trial on Trypanosoma cruzi in the chronic phase, Balb/c mice: serological evaluation (ELISA)
Text: (§1) The Balb/c-type mice are bred in the animal house of the Health Sciences Research Institute (IICS, Asuncion, Paraguay) and are 6 to 8 weeks old at the time of the experimental protocols. For this experimental protocol, the CL strain (Brener clone) of T. cruzi is used in the circulating form (trypomastigotes), and the strain is maintained in routine culture on an animal model by passage every 14 days. The animals are infected intraperitoneally with 1000 parasites. Under these experimental conditions, the parasites develop slowly; this strain produces a parasite peak 21 to 28 days after infection. The majority of the mice survive (70-80%) with slight deterioration of their general physical condition and with absent or subpatent parasitemia. Each week, the number of parasites is verified by taking a blood sample from the tail of the mouse.
(§2) For this long-duration experiment, the treatments begin 120 days after parasitic infection, when the parasitemia is subpatent in all the mice. The mice are then divided up into groups randomly. The treatments with benznidazole, the reference medicinal product, are administered at a concentration of 50 mg/kg or 200 mM/kg per day for 20 days, orally. Canthin-6-one is administered either orally or subcutaneously at a concentration of 5 mg/kg or 20 mM/kg per day for 20 days. A total dichloromethane extract of Zanthoxylum chiloperone var. angustifolium trunk bark is administered orally or subcutaneously at a concentration of 50 mg/kg per day for 20 days. For administration, the active principles are dissolved in 50 μl of a phosphate buffered saline (PBS) solution. The untreated and infected mice receive 50 μl of PBS.
• Weekly counting of the number of parasites circulating in the peripheral blood throughout the experiment, i.e. […] The serological evaluation is carried out using a Chagas ELISA assay (enzyme linked immunoassay) kit, IISC, Asuncion. The optical densities are measured with an ELISA plate reader (Titerek, Unistan, I). Statistical Studies:
(§3) The mean and the standard deviations of each group are calculated, and the differences between the groups are determined by means of the Student's test and the Kruskal-Wallis non-parametric analysis of variance test. The comparisons are carried out between the untreated group and the treated groups, P<0.05.

[2] = test system: Trypanosoma cruzi; experiment: In vivo trial on Trypanosoma cruzi in the acute phase, Balb/c mice: parasitological evaluation (parasites in peripheral blood)
Text: (§4) Animals and parasites: The Balb/c-type mice are bred in the animal house of the Health Sciences Research Institute (IICS, Asuncion, Paraguay) and are 6 to 8 weeks old at the time of the experimental protocols.
(§5) For these trials, the CL strain (Brener clone) of T. cruzi is used in the circulating form of the parasite (trypomastigotes). The animals are infected intraperitoneally with 5000 parasites; this strain produces its parasite peak 21 to 25 days after infection. Each week, the number of parasites is verified by means of a blood sample taken from the tail of the mouse.
(§6) Infection and treatment: The treatments with benznidazole, the reference medicinal product, and canthin-6-one begin 11 days after parasitic infection, at a rate of 50 mg/kg or 200 mM/kg for benznidazole and at the concentration of 5 mg/kg or 20 mM/kg for canthin-6-one. The duration of the treatments is fixed at two weeks and the chosen route of administration is oral for benznidazole and canthin-6-one; furthermore, a group of mice is treated with canthin-6-one administered subcutaneously. The untreated and infected mice are given 100 μl of a phosphate buffered saline solution.
(§7) • weekly counting of the number of parasites circulating in the peripheral blood throughout the experiment, i.e. 10 weeks; • observation of mortality; • two serological evaluations: 40 days post-infection, i.e. 15 days after treatment has been stopped, and 68 days post-infection, i.e. 45 days post-treatment. The serological evaluation is carried out by means of a Chagas ELISA assay (enzyme linked immunoassay) kit, IISC, Asuncion. The optical densities are measured with an ELISA plate reader (Titerek, Unistan, I).
(§8) Statistical studies: The mean and the standard deviations of each group are calculated, the differences between the groups are determined by means of the Student's test and the Kruskal-Wallis non-parametric analysis of variance test. The comparisons are carried out between the nontreated group and the treated groups, P<0.05.

[3] = test system: Trypanosoma cruzi; experiment: In vivo trial on Trypanosoma cruzi in the acute phase, Balb/c mice: serological evaluation (anti-T. cruzi ELISA); conditions: for 1st serology (anti-T. cruzi ELISA, optical density): 40 days post-infection, 15 days post-treatment; for 2nd serology (anti-T. cruzi ELISA, optical density): 68 days post-infection, 45 days post-treatment
Text: as §4, §5, §6, §7, §8

[4] = test system: Trypanosoma cruzi; experiment: In vivo trial on Trypanosoma cruzi in the chronic phase, Balb/c mice: parasitemia and mortality
Text: as §1
as §2, with “For this long-duration experiment, the treatments begin 120 days after parasitic infection, when the parasitemia is subpatent in all the mice.” left out
• Weekly counting of the number of parasites circulating in the peripheral blood throughout the experiment, i.e. 30 weeks. • Observation of mortality. • Three serological evaluations, 45 days before the beginning of treatments, 10 days after treatment has stopped and 75 days post-treatment. The serological evaluation is carried out using a Chagas ELISA assay (enzyme linked immunoassay) kit, IISC, Asuncion. The optical densities are measured with an ELISA plate reader (Titerek, Unistan, I). Statistical Studies:
as §3

O=c1ccc2nccc3c4ccccc4n1c23 [canthin-6-one]
ELISA (optical density ± standard deviation) ([1]; 10 d post-treatment, 5 mg/kg orally): 1.621 ± 0.547 | ELISA (optical density ± standard deviation) ([1]; 10 d post-treatment, 5 mg/kg/d subcutaneously): 1.850 ± 0.405 | ELISA (optical density ± standard deviation) ([1]; 43 days before treatment (baseline), 5 mg/kg orally): 1.878 ± 0.348 | ELISA (optical density ± standard deviation) ([1]; 43 days before treatment (baseline), 5 mg/kg/d subcutaneously): 1.916 ± 0.368 | ELISA (optical density ± standard deviation) ([1]; 75 d post-treatment, 5 mg/kg orally): 1.799 ± 0.333 | ELISA (optical density ± standard deviation) ([1]; 75 d post-treatment, 5 mg/kg/d subcutaneously): 1.870 ± 0.268 | effective dose against Trypanosoma cruzi relative to benznidazole ([2]; activity assays, general statement): doses ten times lower than the doses at which benznidazole is effective | number of parasites ± standard deviation ([2]; day 4 post-infection (before treatment), 5 mg/kg oral, two weeks from day 11, n = 7): 0 | number of parasites ± standard deviation ([2]; day 4 post-infection (before treatment), 5 mg/kg subcutaneous, two weeks from day 11, n = 8): 0 | number of parasites ± standard deviation ([2]; day 11 post-infection (period of treatment), 5 mg/kg oral, n = 7): 0 | number of parasites ± standard deviation ([2]; day 11 post-infection (period of treatment), 5 mg/kg subcutaneous, n = 8): 0 | number of parasites ± standard deviation ([2]; day 18 post-infection (period of treatment), 5 mg/kg oral, n = 7): 285 ± 515.9 | number of parasites ± standard deviation ([2]; day 18 post-infection (period of treatment), 5 mg/kg subcutaneous, n = 8): 766.3 ± 719.2 | number of parasites ± standard deviation ([2]; day 25 post-infection (period of treatment), 5 mg/kg oral, n = 7): 402 ± 837.7 | number of parasites ± standard deviation ([2]; day 25 post-infection (period of treatment), 5 mg/kg subcutaneous, n = 8): 88.4 ± 142.9 | number of parasites ± standard deviation ([2]; day 32 post-infection, 5 mg/kg oral, two weeks from day 11, n = 7): 426.2 ± 664.5 | number of parasites ± standard deviation ([2]; day 32 post-infection, 5 mg/kg subcutaneous, two weeks from day 11, n = 8): 267.5 ± 546.5 | number of parasites ± standard deviation ([2]; day 39 post-infection, 5 mg/kg oral, two weeks from day 11, n = 7): 36.6 ± 58.4 | number of parasites ± standard deviation ([2]; day 39 post-infection, 5 mg/kg subcutaneous, two weeks from day 11, n = 8): 2077.1 ± 2214.2 | number of parasites ± standard deviation ([2]; day 45 post-infection, 5 mg/kg oral, two weeks from day 11, n = 7): 34.4 ± 76.9 | number of parasites ± standard deviation ([2]; day 45 post-infection, 5 mg/kg subcutaneous, two weeks from day 11, n = 8): 314.1 ± 499.3 | number of parasites ± standard deviation ([2]; day 53 post-infection, 5 mg/kg oral, two weeks from day 11, n = 7): 58.4 ± 80.6 | number of parasites ± standard deviation ([2]; day 53 post-infection, 5 mg/kg subcutaneous, two weeks from day 11, n = 8): 473.4 ± 921.9 | number of parasites ± standard deviation ([2]; day 60 post-infection, 5 mg/kg oral, two weeks from day 11, n = 7): 16 ± 35.8 | number of parasites ± standard deviation ([2]; day 60 post-infection, 5 mg/kg subcutaneous, two weeks from day 11, n = 8): 129.9 ± 194.4 | number of parasites ± standard deviation ([2]; day 68 post-infection, 5 mg/kg oral, two weeks from day 11, n = 7): 0 | number of parasites ± standard deviation ([2]; day 68 post-infection, 5 mg/kg subcutaneous, two weeks from day 11, n = 8): 34.9 ± 98.6 | eradication of Trypanosoma cruzi from the infected organism, acute phase ([2]; orally 5 mg/kg/d): complete eradication of Trypanosoma cruzi from the infected organism | activity compared with benznidazole (50 mg/kg/d), acute phase ([2]; orally 5 mg/kg/d, from the 39th day after infestation, 15 days after the end of treatment): activity that is much greater than the benznidazole | 1st serology (anti-T. cruzi ELISA, optical density) ([3]; 5 mg SC): 0.2151 ± 0.1447 | 1st serology (anti-T. cruzi ELISA, optical density) ([3]; 5 mg oral): 0.1105 ± 0.0387 | 2nd serology (anti-T. cruzi ELISA, optical density) ([3]; 5 mg SC): 0.1347 ± 0.6327 | 2nd serology (anti-T. cruzi ELISA, optical density) ([3]; 5 mg oral): 0.3953 ± 0.7531 | Negative parasitemia/number of surviving mice ([4]; 0 days post-treatment, 5 mg/kg orally for 20 days): 7/8 | Negative parasitemia/number of surviving mice ([4]; 0 days post-treatment, 5 mg/kg/d subcutaneously for 20 days): 6/8 | Negative parasitemia/number of surviving mice ([4]; 10 d post-treatment, 5 mg/kg orally for 20 days): 7/8 | Negative parasitemia/number of surviving mice ([4]; 10 d post-treatment, 5 mg/kg/d subcutaneously for 20 days): 7/8 | Negative parasitemia/number of surviving mice ([4]; 40 d post-treatment, 5 mg/kg orally for 20 days): 8/8 | Negative parasitemia/number of surviving mice ([4]; 40 d post-treatment, 5 mg/kg/d subcutaneously for 20 days): 6/8 | Negative parasitemia/number of surviving mice ([4]; 60 d post-treatment, 5 mg/kg orally for 20 days): 8/8 | Negative parasitemia/number of surviving mice ([4]; 60 d post-treatment, 5 mg/kg/d subcutaneously for 20 days): 6/8 | eradication of Trypanosoma cruzi from the infected organism, chronic phase ([4]; orally 5 mg/kg/d for 20 days): complete eradication of Trypanosoma cruzi from the infected organism | protection of the mice against death, chronic phase ([4]; orally 5 mg/kg/d for 20 days): protects the mice against death | activity compared with benznidazole (50 mg/kg/d), chronic phase ([4]; orally 5 mg/kg/d for 20 days from the 108th day after parasitic infection, 79 days after the end of the treatment): greater activity than benznidazole
